Measurements from ChEMBL document CHEMBL3507680, “University of Dundee, Gates Library screen for HepG2 cell viability”.

Assay: Human HepG2 cell viability assay in 384 well format
Type: toxicity, cell-based
Parameters: dose 125 nL, time 70.5 hour; concentration not given beside the values
Settings: HepG2 cells, read-out: Inhibition

| Structure (SMILES) | cytotoxicity at 70.5 h [%] |
| --- | --- |
| O=C(Cc1csc(-c2ccco2)n1)N1CCCC1Cn1cccn1 (stereo not drawn) | -7.55 |
| CS(=O)(=O)NCCN1CCOC2(CCc3ccccc32)C1 (stereo not drawn) | -7.71 |
| CC(=O)N(Cc1noc(C2CC2)n1)C1CCN(Cc2cccnc2)C1 (stereo not drawn) | -9.51 |
| O=c1ccc2c(n1Cc1cccnc1)CCN(Cc1ccoc1)CC2 | 4.28 |
| Cc1noc2ncc(C(=O)NCC3CCCOC3)cc12 (stereo not drawn) | -8.17 |
| Cc1cc(N2CCCC(N(C)C)C2)n2nccc2n1 (stereo not drawn) | 9.89 |
| COC(=O)CNC(=O)c1nc(-c2ccccc2OC)c2cnccn12 | -11.4 |
| Cc1cnn(CC2CCCN2C(=O)c2cccc(-n3cnnn3)c2)c1 (stereo not drawn) | -28.5 |
| CS(=O)(=O)NCCN(CCCO)C1CCc2ccccc21 (stereo not drawn) | -97.1 |
| Cn1cc(C[C@H]2[C@H](O)CCN2CC2CC2)cn1 | 6.74 |
| Cn1cc(C(=O)N2CCC(c3ncc[nH]3)CC2)cn1 | -17.5 |
| COc1ccc(CN2CCC(c3nccnc3-n3ccnc3)CC2)cc1 | -5.25 |
| Cc1ccc(N2CCCC(NCc3c(C)noc3C)C2)nn1 (stereo not drawn) | -8.52 |
| CCc1nc(CNC2CCCCNC2=O)cs1 (stereo not drawn) | -6.64 |
| CN(C)C(C(=O)N1CCN(S(N)(=O)=O)CC1)c1ccccc1F (stereo not drawn) | -3.36 |
| O=C(CN1CCC(c2ccccc2)CC1)NCc1cc2n(n1)CCNC2 | -10.6 |
| CCc1nc(CN(C)C2CCN(Cc3nnc(C4CCC4)o3)C2)no1 (stereo not drawn) | -0.232 |
| CCn1ccnc1CN1CCN(CCCS(C)(=O)=O)CC1C (stereo not drawn) | 12.1 |
| COc1ccc(-c2ccc(C(=O)N3CCOCC3CC(=O)O)o2)cc1 (stereo not drawn) | -3.78 |
| COCCNS(=O)(=O)c1ccc2c(c1)CCN(C(=O)c1cncn1C)C2 | -5.18 |
| CCn1nc(C)cc1C(=O)OCCNC(=O)c1ccccc1 | -0.786 |
| CC(C)NC(=O)N1CCOC2(CCCN(c3cccc(C#N)c3)C2)C1 (stereo not drawn) | -10.4 |
| CCOCCCNc1cc(C)nn2cnnc12 | 7.54 |

| Structure (SMILES) | cytotoxicity at 70.5 h [%] |
| --- | --- |
| O=C(C(CNCc1cccc(O)c1)c1ccccc1)N1CCOCC1 (stereo not drawn) | -4.48 |
| CC(CNC(=O)CCn1cncn1)N1CCc2ccccc21 (stereo not drawn) | -1.72 |
| CC(OCC(F)(F)F)C(=O)N1CCCCC1 (stereo not drawn) | 0.611 |
| Cc1cc(CNC(=O)C(c2ccc(F)cc2)N(C)C)n[nH]1 (stereo not drawn) | 7.79 |
| CCN1CCC(NC(=O)CN2CCc3c(ncn3C)C2)CC1 | 2.11 |
| CCCOC(=O)N1CCCn2nc(C(=O)Nc3ccccc3)cc2C1 | -9.85 |
| CC(C)(C)n1nnnc1CN(Cc1ccccc1)Cc1ccc(Cl)cc1 | 8.17 |
| Cc1nc(C)c(C)c(N2CCC(O)(c3ccc(F)cc3)CC2)n1 | -6.02 |
| O=C(CCc1ccccc1)N[C@H]1CC[C@@]2(CCC(=O)N2)CC1 | -8.44 |
| CCOc1ccc(C(C)Nc2ncnc3c2CCNC3)cc1OCC (stereo not drawn) | -12 |
| O=C(CCO)N1CCOC2(CCCN(C(=O)c3ccco3)C2)C1 (stereo not drawn) | -7.04 |
| Cc1nn(C)cc1CN1CCC(C2Nc3ccccc3S(=O)(=O)N2)CC1 (stereo not drawn) | -12.8 |
| O=C(c1cccs1)N1CCC2(CC1)CN(c1ccsc1)C(=O)CO2 | -8.69 |
| O=C(c1ccc2[nH]ccc2c1)N1Cc2nc(CN3CCCCC3)oc2C1 | -3.84 |
| O=C(c1ccc(F)cc1F)N1C[C@@H](O)[C@H](N2CCOCC2)C1 | -2.76 |
| COCCN1CCC(CN(C)c2nc3c(s2)c(C)nn3C)C1 (stereo not drawn) | -3.25 |
| CCc1nc(C)c([C@H]2CN(C)C[C@@H]2C(=O)NCc2ccccn2)[nH]1 | -2.64 |
| COc1cccc(-c2cccc(CN3C[C@@H]4CC[C@H](C3)N(C)C4=O)c2)c1 | 14.8 |
| O=C(CCCn1ccnc1)N[C@H]1CN(C2CCCC2)C[C@@H]1C1CC1 | -11.7 |
| CCc1c(C(=O)N2CCCC(N(C)C)C2)cnn1C(C)(C)C (stereo not drawn) | -4.41 |
| O=C(CN1C(=O)CCC1=O)NCC1(O)CCc2ccccc21 (stereo not drawn) | 1.38 |
| CC(C)(C)C(=O)NCCC(=O)NC(C)(C)c1ccc2c(c1)OCO2 | -3.54 |
| CCn1cc2c(n1)CN(CC1CC1)CC2COCC1CC1 (stereo not drawn) | -15 |

| Structure (SMILES) | cytotoxicity at 70.5 h [%] |
| --- | --- |
| Cc1cc(NC(=O)C2CCCN(C(=O)NCC(C)C)C2)ccn1 (stereo not drawn) | -14.5 |
| CSc1ncccc1C(=O)N1C[C@H]2CC[C@@H]1CN(C(C)=O)C2 | -6.7 |
| CC(=O)N1CCCC1c1cccc(Oc2ccccc2F)n1 (stereo not drawn) | -4.13 |
| Cc1noc(C)c1C(C)NC(=O)N1CCCN(C(=O)c2ccsc2)CC1 (stereo not drawn) | -13.8 |
| CC(C)(C)N1CC(C(=O)NCc2noc(Cc3ccccc3)n2)CC1=O (stereo not drawn) | 21.2 |
| CN1CCN(Cc2ccc(-c3ccc(-c4ccn[nH]4)cc3)nc2)CC1 | 0.0371 |
| Cn1cc(C2CCCN2C(=O)Cn2ccc3ccc(Cl)cc32)cn1 (stereo not drawn) | 12.2 |
| COC(=O)c1ccc(N(C(=O)c2cscn2)C(C)C)c(C)c1 | -4.28 |
| COc1ccc(C(=O)Nc2cc(CC(C)C)nn2C)cc1 | 7.52 |
| Cn1cc(C(NCc2ccc(F)cc2)c2cccc(F)c2)cn1 (stereo not drawn) | -13.5 |
| Cc1oc(C(=O)O)cc1S(=O)(=O)Nc1cccc(-n2nccc2C)c1 | -5.02 |
| CCN1CC(=O)NCC12CCN(C(=O)c1ccco1)C2 (stereo not drawn) | -3.25 |
| CCOC(=O)NC1CCCN(c2cncc(Br)c2)C1 (stereo not drawn) | 0.767 |
| CC/N=c1\nc(NCC)nc2n1C(O)(Nc1cc(Cl)ccc1Cl)CS2 (stereo not drawn) | 17.8 |
| COC[C@]1(O)CCN(c2cc(C3CC3)ncn2)CC1(C)C | -10.5 |
| CCc1nc(CCNc2ccc(S(N)(=O)=O)cc2C#N)cs1 | -21 |
| Cc1ccc(S(=O)(=O)N(CC(N)=O)CC(C)C)cc1C | -5.56 |
| Cc1c(C(=O)NCC2CCN(C)C2)n(C)c2c(C)cccc12 (stereo not drawn) | -7.34 |
| O=C(c1cc(F)cc(Cl)c1)N1C[C@@H]2CC[C@H](C1)N(Cc1ccccc1)C2 | -3.75 |
| FC(F)(F)c1ccc(-n2ccnc2-c2cc3n(n2)CCNC3)cn1 | 12.7 |
| CC(C)n1cnc2c1C(C(=O)N1CCOCC1)N(CC1CC1)CC2 (stereo not drawn) | -15.8 |
| CSc1ccc(C(=O)C2CCCN(C(=O)CCn3cnnn3)C2)cc1 (stereo not drawn) | 14.5 |
| Cc1cc(NC(=O)CN2CCCC(Cn3cncn3)C2)no1 (stereo not drawn) | -3.46 |

| Structure (SMILES) | cytotoxicity at 70.5 h [%] |
| --- | --- |
| CSCC(CCO)Nc1cccc(C(F)(F)F)n1 (stereo not drawn) | -1.51 |
| COC(=O)CC1CCCCN1CC(=O)Nc1ccc(F)cc1Cl (stereo not drawn) | 21.6 |
| CNC(=O)c1cnc2n1CCN(Cc1cccnc1)C2 | -2.74 |
| O=C(CC1CCC2(CC1)CCN(Cc1nccs1)CC2)N1CC=CC1 | -3.04 |
| Cc1cc(C)n(-c2ccc(NCCNS(=O)(=O)c3ccccc3)nn2)n1 | -5.4 |
| O=C1NCCCC12CCN(Cc1ccc(SC3CCCCC3)o1)C2 (stereo not drawn) | 5.14 |
| Cc1ccc(S(=O)(=O)c2ncccc2CN2CCCC2)cc1 | -22.8 |
| Cc1cc(CN2CCN(C(=O)CCc3cccc(F)c3F)CC2)on1 | -6.52 |
| Cc1c(COc2ccccc2)cccc1NC(=O)N1CC[C@H](O)C1 | -1.47 |
| Cc1nc(C)n(CC2CN(Cc3cccnc3)CCO2)n1 (stereo not drawn) | -3.76 |
| CN(C)C(=O)c1cccc(CCNS(=O)(=O)c2ccccc2)c1 | -1.77 |
| CC(C)CNC(=O)Cn1cc(C(N)=O)c(-c2ccccc2)n1 | -8.01 |
| Cc1nc(CN2C(=O)CCC23CCN(Cc2ccco2)CC3)cs1 | -1.31 |
| CCn1c(CC2CCN(C(=O)c3ccnn3C)CC2)n[nH]c1=O | -6.64 |
| Cc1cccc(CO[C@@H]2CC[C@H]3[C@H]2OCCN3Cc2cc(C)on2)n1 | -0.405 |
| Cc1nc(CC2CCCN(Cc3nc4ccccc4c(=O)[nH]3)C2)no1 (stereo not drawn) | -7.59 |
| Cc1cnn(C2CCCN(C(=O)Cc3ccc(C)s3)C2)c1 (stereo not drawn) | -0.137 |
| c1ccc(NCc2cn3c(n2)CN(Cc2nccs2)CC3)nc1 | -0.336 |
| CC(=O)NCCNC(=O)c1cccc(Cn2nc(C)cc2C)c1 | -1.57 |
| CCOCCCC(=O)Nc1cccnc1-n1ccnc1C | -6.87 |
| c1cc(CN2CC[C@H]3C[C@H](c4nc(C5CC5)cs4)O[C@@H]3C2)ccn1 | -7.31 |
| CC(C)c1ccn(C2(C(=O)O)CCN(c3ccncc3F)CC2)n1 | -4.07 |
| Cc1ncc(C(=O)NCCNc2ncccn2)s1 | -2.18 |

| Structure (SMILES) | cytotoxicity at 70.5 h [%] |
| --- | --- |
| Cc1ccc(CN2CCOC3(CCN(C(=O)C4CC=CC4)CC3)C2)cc1 | -2.99 |
| Cc1ccc(CCNC(=O)NCCCC(N)=O)c(C)c1 | 1.66 |
| COc1cc(N(C)CCCn2nc(C)cc2C)ncn1 | -10.8 |
| N#Cc1cc(Cl)ccc1N1CCN(C(=O)C2CCC2)CC1 | -1.06 |
| Cc1cc(C)nc(NCCC(=O)Nc2ccc(Cn3cncn3)cc2)n1 | -9.08 |
| Cc1nn(C)c2cn(CC(=O)N3CCc4ccccc4C3)nc12 | 1.13 |
| CCOc1ccc2cc(C(=O)N3CCn4c(CC)nnc4C3)[nH]c2c1 | -8.2 |
| COc1ccc(Cl)cc1CNCCCn1ccnc1 | -2.31 |
| Cc1cccc(-n2c(C)cc(=O)[nH]c2=O)c1C | -4.81 |
| Cc1ccc(S(=O)(=O)N(C)Cc2cnccn2)cc1N(C)C | -1.07 |
| COc1ccccc1OCCN1CCCC(c2cc(C(N)=O)[nH]n2)C1 (stereo not drawn) | -9.71 |
| CC(C)(C)C(=O)N1C[C@H](c2ccsc2)[C@H]2CN(C3CCCCC3)CC[C@H]21 | -3.27 |
| CC(=O)c1cc(CN2C[C@@H](CN3CCC(O)CC3)[C@@H](CO)C2)n(C)c1 | 0.0676 |
| Cc1csc(N2CCCN(C(=O)c3c(C)oc(C)c3C)CC2)n1 | -1.91 |
| CC(=O)N1CCC(Cc2cccc(-c3ccnn3C)n2)CC1 | -8.71 |
| Cc1cc(C(C)NC(=O)Cn2nc(C)c3ccccc3c2=O)c(C)o1 (stereo not drawn) | 18.3 |
| Cc1oc(C(=O)O)cc1S(=O)(=O)Nc1ccc(Cl)c(F)c1 | -6.62 |
| Cc1cc(C)n(CC(C)Nc2ncnc3c2CCNC3)n1 (stereo not drawn) | -11.9 |
| COCCN(C)c1ccc(NCc2cccnc2)nc1 | 5.65 |
| O=C(c1cc(COc2ccc3c(c2)OCO3)[nH]n1)N1CC=CC1CO (stereo not drawn) | -8.31 |
| COCC(=O)NC(C)c1cccc(Br)c1 (stereo not drawn) | -2.66 |
